Experimental data from ChEMBL document CHEMBL4392885, “Investigation of Premyrsinane and Myrsinane Esters in Euphorbia cupanii and Euphobia pithyusa with MS2LDA and Combinatorial Molecular Network Annotation Propagation” (J Nat Prod, 2019).

Key:
Chikungunya virus = test: Antiviral activity against Chikungunya virus Indian ocean strain 899 infected in African green monkey Vero A cells assessed as reduction in viral-induced cytopathic effect after 6 to 7 days by MTS/PMS assay; format: functional, organism-based; details: Indian ocean strain 899, Vero
[1] = Selectivity index, ratio of CC50 for African green monkey Vero A cells to EC50 for Chikungunya virus Indian ocean strain 899 infected in African green monkey Vero A cells; format: toxicity; details: read-out: Ratio CC50/EC50

SMILES | EC50 (Chikungunya virus) | selectivity ratio [1]
CCCCC/C=C\C=C\C(=O)O[C@@H]1[C@@H](C)[C@@]2(O)[C@@H](C=C(CO)C[C@]3(O)C(=O)C(C)=C[C@@H]23)[C@@H]2C(C)(C)[C@]12OC(=O)C(C)C | < 800 nM | > 12
CCCCC/C=C\C=C\C(=O)O[C@@H]1[C@@H](C)[C@@]2(O)[C@@H](C=C(CO)C[C@]3(O)C(=O)C(C)=C[C@@H]23)[C@@H]2C(C)(C)[C@]12OC(=O)C(C)CC (stereo partly drawn) | < 800 nM | > 12
CCCCC/C=C/C=C\C(=O)O[C@@H]1[C@@H](C)[C@@]2(O)[C@@H](C(=O)C(CO)=C[C@]3(O)C(=O)C(C)=C[C@@H]23)[C@@H]2C(C)(C)[C@]12OC(=O)C(C)C | 4500 nM | 6.3
CCCCC/C=C/C=C\C(=O)O[C@@H]1[C@@H](C)[C@@]2(O)[C@@H](C=C(CO)C[C@]3(O)C(=O)C(C)=C[C@@H]23)[C@@H]2C(C)(C)[C@]12OC(=O)C(C)C | < 800 nM | > 12
